Like-named read-outs stand apart in the source and are kept apart here. Some results are limits rather than exact numbers.

Here are results for 18 compounds from patent US5639783A, “Ketone derivatives” (Mitsubishi Chemical Corporation, priority 1991, dated 1997).

Format in all cases: biochemical
The target of one experiment is T1, cathepsin L (Rattus norvegicus, UniProt P07154).
T1 construct: Cathepsin L was purified from rat kidney; from tissue; host or cells: rat kidney
Kind of experiment: Thiol protease inhibitory activity, cathepsin L purified from rat kidney. Particulars: Table 3. The protocol:
(§1) Inhibitory activity against papain (P-3125, Sigma) and cathepsin B (C-6286, Sigma) was assayed according to the method described in a literature [Biochemical Journal, 201, 189 (1982)]. Cathepsin L was purified from rat kidney according to the method in a literature [Journal of Biochemistry, 100, 35 (1986)], and the inhibitory activity against it was assayed in the same manner as described in the above literature for cathepsin B. Furthermore, m-calpain was purified from rat brain according to a known method [Journal of Biological Chemistry, 254, p. 3210 (1984)] and the inhibitory activity against it was assayed by a method described in a literature [Journal of Biological Chemistry, 259, 12489 (1984)]. It is evident from Tables 3 and 4 that the compounds of the present invention have a potent inhibitory activity against thiol proteases such as papain, cathepsin B, cathepsin L or m-calpain.

A further experiment concerns the target T2, m-calpain (Rattus norvegicus, UniProt Q07009).
T2 construct: m-calpain was purified from rat brain; from tissue; host or cells: rat brain
T2 sequence (Q07009 20-700 limits assumed): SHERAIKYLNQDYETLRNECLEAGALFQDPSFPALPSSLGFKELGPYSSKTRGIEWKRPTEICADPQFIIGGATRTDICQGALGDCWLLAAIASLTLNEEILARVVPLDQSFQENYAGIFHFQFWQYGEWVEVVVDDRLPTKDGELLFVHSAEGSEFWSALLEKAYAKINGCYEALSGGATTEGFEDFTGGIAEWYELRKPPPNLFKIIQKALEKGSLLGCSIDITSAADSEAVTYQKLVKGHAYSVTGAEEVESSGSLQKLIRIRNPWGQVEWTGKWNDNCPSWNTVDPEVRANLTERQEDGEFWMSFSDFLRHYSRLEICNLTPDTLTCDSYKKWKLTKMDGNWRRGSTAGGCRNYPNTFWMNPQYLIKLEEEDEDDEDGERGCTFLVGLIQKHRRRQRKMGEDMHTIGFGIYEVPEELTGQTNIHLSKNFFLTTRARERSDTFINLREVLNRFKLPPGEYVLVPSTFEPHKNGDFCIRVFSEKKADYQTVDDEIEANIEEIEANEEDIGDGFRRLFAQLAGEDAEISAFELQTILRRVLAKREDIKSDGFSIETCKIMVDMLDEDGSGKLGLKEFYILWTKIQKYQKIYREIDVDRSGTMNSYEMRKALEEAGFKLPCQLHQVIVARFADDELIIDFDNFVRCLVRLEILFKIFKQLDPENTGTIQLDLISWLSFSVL
T2 sequence (Q64537 1-270 partner): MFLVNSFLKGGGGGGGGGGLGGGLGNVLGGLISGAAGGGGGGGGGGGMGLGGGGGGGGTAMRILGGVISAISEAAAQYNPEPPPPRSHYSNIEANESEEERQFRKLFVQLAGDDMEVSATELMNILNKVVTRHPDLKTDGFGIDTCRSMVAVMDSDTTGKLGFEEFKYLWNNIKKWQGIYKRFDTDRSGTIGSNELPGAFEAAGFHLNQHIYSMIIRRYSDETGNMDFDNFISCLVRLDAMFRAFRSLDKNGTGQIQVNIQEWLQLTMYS
Kind of experiment: Thiol protease inhibitory activity, m-calpain purified from rat brain. The settings on record: Table 3. Summed up:
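Papain and bovine cathepsin B assayed by a published method; cathepsin L purified from rat kidney and assayed in the same manner as cathepsin B. m-Calpain purified from rat brain and assayed by a separate published procedure.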

The target of another experiment is T3, papain (Carica papaya, UniProt P00784).
T3 sequence (P00784 134-345): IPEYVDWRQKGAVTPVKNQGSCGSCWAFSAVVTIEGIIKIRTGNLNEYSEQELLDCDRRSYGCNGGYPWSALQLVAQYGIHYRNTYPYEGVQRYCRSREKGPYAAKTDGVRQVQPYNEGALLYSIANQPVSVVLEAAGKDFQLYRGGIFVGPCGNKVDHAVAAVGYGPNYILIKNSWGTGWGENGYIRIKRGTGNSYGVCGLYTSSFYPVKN
Nature of the experiment: Thiol protease inhibitory activity, papain (P-3125, Sigma). The protocol: as §1

Another experiment addresses T4, cathepsin B (Bos taurus, UniProt P07688).
T4 construct: purchased Sigma C-6286
Nature of the experiment: Thiol protease inhibitory activity, cathepsin B (C-6286, Sigma). The settings on record: Table 3. The protocol:
as §1

T1 sequence (P07154 114-334): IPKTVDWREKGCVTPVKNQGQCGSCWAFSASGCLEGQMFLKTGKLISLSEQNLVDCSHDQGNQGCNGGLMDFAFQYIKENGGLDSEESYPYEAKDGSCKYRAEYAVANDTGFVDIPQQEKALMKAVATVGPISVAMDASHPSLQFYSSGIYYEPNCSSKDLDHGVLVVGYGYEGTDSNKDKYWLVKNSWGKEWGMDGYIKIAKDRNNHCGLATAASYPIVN

As a reminder, the IC50 is the point on the concentration scale where inhibition reaches its midpoint. With `CCCC[C@H](NC(=O)[C@H](CC(C)C)NC(=O)c1cc2ccccc2o1)C(=O)CSCc1ccco1` [91 (No. 180), (s)-3-[(s)-2-(2-benzofuranylcarbonylamino)-4-methylvalerylamino]-1-furfurylthio-2-heptanone], the IC50 at cathepsin L was 69 nM; on m-calpain, 14000 nM; on papain (Table 3, read-out: IC50 papain) it was 160 nM; on cathepsin B, 50 nM.

Take `CC(C)C[C@H](NC(=O)OCc1ccccc1)C(=O)N[C@@H](CC1CCCCC1)C(=O)CSCc1ccco1` [109 (No. 238), (s)-3-((s)-2-benzyloxycarbonylamino-4-methylvalerylamino)-4-cyclohexyl-1-furfurylthio-2-butanone]: the 50% inhibitory concentration (IC50) at cathepsin L worked out at 1200 nM; on m-calpain, 13000 nM; at papain (Table 3, read-out: IC50 papain) it was 4200 nM; against cathepsin B it was 1100 nM.

Take `CCCC[C@H](NC(=O)[C@H](CC(C)C)NC(=O)COc1cccc(C)c1)C(=O)CSCc1ccco1` [45 (No. 97), (s)-1-furfurylthio-3-[(s)-4-methyl-2-(3-methylphenoxyacetylamino)valerylamino]-2-heptanone]: the half-maximal inhibitory concentration (IC50) at cathepsin L was determined as 190 nM; on m-calpain it was 11000 nM; on papain (Table 3, read-out: IC50 papain), 510 nM; against cathepsin B it was 380 nM.

Consider `CC(C)C[C@H](NC(=O)C(C)Oc1ccccc1)C(=O)N[C@@H](Cc1ccccc1)C(=O)CSCc1ccco1` (stereo partly drawn) [165 (No. 349), (s)-1-furfurylthio-3-[(s)-4-methyl-2-(2-phenoxypropionylamino)valerylamino]-4-phenyl-2-butanone], for which the IC50 came out at 1900 nM on cathepsin L; 13000 nM at m-calpain; 9200 nM on papain (Table 3, read-out: IC50 papain); 7000 nM at cathepsin B.

For `CCCC[C@H](NC(=O)[C@H](CC(C)C)NC(=O)c1cccc2ccccc12)C(=O)CSCc1ccco1` [83 (No. 161), (s)-1-furfurylthio-3-[(s)-4-methyl-2-(1-naphtoylamino)valerylamino]-2-heptanone], the IC50 at cathepsin L was 400 nM; on m-calpain, 12000 nM; at papain (Table 3, read-out: IC50 papain) it was 47000 nM; against cathepsin B, 5000 nM.

`CCCC[C@H](NC(=O)[C@H](CC(C)C)NC(=O)COc1c(Cl)cc(Cl)cc1Cl)C(=O)CSCc1ccco1` [43 (No. 94), (s)-1-furfurylthio-3-[(s)-4-methyl-2-(2,4,6-trichlorophenoxyacetylamino)valerylamino]-2-heptanone]: the 50% inhibitory concentration (IC50) against cathepsin L came to 38 nM; against m-calpain it was 5800 nM; at papain (Table 3, read-out: IC50 papain), 370 nM; against cathepsin B, 57 nM.

On to `CC(C)C[C@H](NC(=O)COc1ccccc1Cl)C(=O)N[C@@H](Cc1ccccc1)C(=O)CSCc1ccco1` [167 (No. 354), (s)-3-[(s)-2-(2-chlorophenoxyacetylamino)-4-methylvalerylamino]-1-furfurylthio-4-phenyl-2-butanone], for which the concentration for half-maximal inhibition (IC50) at cathepsin L was 1400 nM; against m-calpain, 20000 nM; at papain (Table 3, read-out: IC50 papain), above 100000 nM; against cathepsin B it was 30000 nM.

As for `CC(C)C[C@H](NC(=O)COc1cccc2ccccc12)C(=O)N[C@@H](Cc1ccccc1)C(=O)CSCc1ccco1` [170 (No. 364), (s)-1-furfurylthio-3-[(s)-4-methyl-2-(1-naphtoxyacetylamino)valerylamino]-4-phenyl-2-butanone], the concentration for half-maximal inhibition (IC50) against cathepsin L came to 8600 nM; on m-calpain, 19000 nM; on papain (Table 3, read-out: IC50 papain) it was 9200 nM; against cathepsin B, 6500 nM.

For `CCCC[C@H](NC(=O)[C@H](CC(C)C)NC(=O)Cc1csc2ccccc12)C(=O)CSCc1ccco1` [34 (No. 79), (s)-3-[(s)-2-(3-benzothienylacetylamino)-4-methylvalerylamino]-1-furfurylthio-2-heptanone], the IC50 against cathepsin L was 510 nM; against m-calpain, 5500 nM; on papain (Table 3, read-out: IC50 papain), 360 nM; against cathepsin B, 410 nM.

Consider `CCCC[C@H](NC(=O)[C@H](CC(C)C)NC(=O)COc1ccc(Cl)cc1)C(=O)CSCc1ccco1` [40 (No. 90), (s)-3-[(s)-2-(4-chlorophenoxyacetylamino)-4-methylvalerylamino]-1-furfurylthio-2-heptanone], for which the half-inhibitory concentration (IC50) was 850 nM on cathepsin L; 8400 nM against m-calpain; 2100 nM at papain (Table 3, read-out: IC50 papain); 270 nM against cathepsin B.

For `CCCC[C@H](NC(=O)[C@H](CC(C)C)NC(=O)OCc1ccccc1)C(=O)CSCc1ccco1` [22 (No. 48), (s)-3-((s)-2-benzyloxycarbonylamino-4-methylvalerylamino)-1-furfurylthio-2-heptanone], the IC50 at cathepsin L was 1300 nM; against m-calpain, 11000 nM; at papain (Table 3, read-out: IC50 papain), 1100 nM; at cathepsin B it was 980 nM.

Turning to `CSCC(=O)[C@H](CCc1ccccc1)NC(=O)[C@H](CC(C)C)NC(=O)OCc1ccccc1` [202 (No. 534), (s)-3-((s)-2-benzyloxycarbonylamino-4-methylvalerylamino)-1-methylthio-5-phenyl-2-pentanone], the concentration for half-maximal inhibition (IC50) against cathepsin L was 390 nM; at m-calpain it was 13000 nM; at papain (Table 3, read-out: IC50 papain), above 100000 nM; at cathepsin B it was 250 nM.

In the case of `CCCC[C@H](NC(=O)[C@H](CC(C)C)NC(=O)COC1CCCCC1)C(=O)CSCc1ccco1` [35 (No. 81), (s)-3-((s)-2-cyclohexyloxyacetylamino-4-methylvalerylamino)-1-furfurylthio-2-heptanone], the concentration for half-maximal inhibition (IC50) on cathepsin L came out at 1100 nM; against m-calpain, 8600 nM; at papain (Table 3, read-out: IC50 papain) it was 210 nM; on cathepsin B, 700 nM.

In the case of `CCCC[C@H](NC(=O)[C@H](CC(C)C)NC(=O)COc1cccc(F)c1)C(=O)CSCc1ccco1` [37 (No. 86), (s)-3-[(s)-2-(3-fluorophenoxyacetylamino)-4-methylvalerylamino]-1-furfurylthio-2-heptanone], the IC50 on cathepsin L stood at 450 nM; on m-calpain, 15000 nM; on papain (Table 3, read-out: IC50 papain), 1300 nM; against cathepsin B it was 700 nM.

For `CC(C)C[C@H](NC(=O)Cc1cccc2ccccc12)C(=O)N[C@@H](Cc1ccccc1)C(=O)CSCc1ccco1` [159 (No. 333), (s)-1-furfurylthio-3-[(s)-4-methyl-2-(l-naphtylacetylamino)valerylamino]-4-phenyl-2-butanone], the IC50 on cathepsin L was 1100 nM; against m-calpain it was 1900 nM; on papain (Table 3, read-out: IC50 papain) it was 380 nM; against cathepsin B it was 750 nM.

For the compound `CSCC(=O)[C@H](CCc1ccccc1)NC(=O)[C@H](CC(C)C)NC(=O)COc1ccccc1` [203 (No. 536), (s)-3-((s)-4-methyl-2-phenoxyacetylaminovalerylamino)-1-methylthio-5-phenyl-2-pentanone], the IC50 amounted to 380 nM on cathepsin L, 9100 nM against m-calpain, 4400 nM against papain and 340 nM on cathepsin B.

`CCCC[C@H](NC(=O)[C@H](CC(C)C)NC(=O)Cc1ccc(F)cc1)C(=O)CSCc1ccco1` [31 (No. 69), (s)-3-[(s)-2-(4-fluorophenylacetylamino)-4-methylvalerylamino]-1-furfurylthio-2-heptanone]: the half-maximal inhibitory concentration (IC50) against cathepsin L was found to be 630 nM; on m-calpain, 22000 nM; at papain (Table 3, read-out: IC50 papain), 1400 nM; at cathepsin B, 550 nM.

In the case of `CCCC[C@H](NC(=O)[C@H](CC(C)C)NC(=O)c1ccc2ccccc2c1)C(=O)CSCc1ccco1` [82 (No. 162), (s)-1-furfurylthio-3-[(s)-4-methyl-2-(2-naphtoylamino)valerylamino]-2-heptanone], the concentration for half-maximal inhibition (IC50) against cathepsin L was determined as 320 nM; on m-calpain, 20000 nM; at papain (Table 3, read-out: IC50 papain) it was 34000 nM; against cathepsin B, 2700 nM.
